Assay results reported in ChEMBL document CHEMBL3259683, “Carbonic anhydrase inhibitors. Inhibition of human cytosolic isoforms I and II with (reduced) Schiff's bases incorporating sulfonamide, carboxylate and carboxymethyl moieties” (Bioorg Med Chem, 2014).

Tests used:
[1] = Solubility of the compound in water; assay type: physicochemical; conditions: buffer
Carbonic anhydrase 1 = Carbonic anhydrase 1 (Homo sapiens, UniProt P00915); assay: Inhibition of human carbonic anhydrase 1-catalyzed CO2 hydration preincubated for 10 mins by stopped-flow assay
Carbonic anhydrase 2 = Carbonic anhydrase 2 (Homo sapiens, UniProt P00918); assay: Inhibition of human carbonic anhydrase 2-catalyzed CO2 hydration preincubated for 10 mins by stopped-flow assay
Homo sapiens = species on record: Homo sapiens; assay: Selectivity ratio of Ki for human carbonic anhydrase 2 to Ki for human carbonic anhydrase 1

Sequence of Carbonic anhydrase 1 (P00915 whole entry): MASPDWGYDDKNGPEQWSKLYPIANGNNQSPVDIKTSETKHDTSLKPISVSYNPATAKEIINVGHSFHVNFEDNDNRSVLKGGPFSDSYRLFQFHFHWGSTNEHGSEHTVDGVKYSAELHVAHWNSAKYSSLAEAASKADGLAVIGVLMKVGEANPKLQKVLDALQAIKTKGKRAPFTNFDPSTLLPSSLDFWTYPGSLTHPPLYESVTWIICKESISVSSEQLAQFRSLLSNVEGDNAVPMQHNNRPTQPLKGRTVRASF

Row | SMILES | solubility [1] | Ki (Carbonic anhydrase 1) [nM] | Ki (Carbonic anhydrase 2) [nM] | Ratio Ki (Homo sapiens)
1 | O=C(O)c1ccc(/N=C/c2ccc(O)cc2)cc1 | soluble | – | – | –
2 | NS(=O)(=O)c1ccc(CCNCc2ccc(O)cc2)cc1 | soluble | 92.1 | 236 | –
3 | NS(=O)(=O)c1ccc(/N=C/c2ccccc2)cc1 | soluble | 311 | – | –
4 | COC(=O)c1ccc(/N=C/c2cc(OC)ccc2O)cc1 | soluble | 7450 | – | –
5 | COc1ccc(O)c(CNc2ccc(S(N)(=O)=O)cc2)c1 | soluble | 23.5 | – | –
6 | COc1ccc(O)c(/C=N/Cc2ccc(S(N)(=O)=O)cc2)c1.Cl | soluble | 92 | – | –
7 | CC(C)(C)c1ccc(/C=N/c2ccc(S(N)(=O)=O)cc2)cc1 | soluble | 85 | – | –
8 | COc1ccc(O)c(/C=N/c2ccc(S(N)(=O)=O)cc2)c1 | soluble | 52 | – | –
9 | NS(=O)(=O)c1ccc(CC/N=C/c2ccccc2)cc1 | soluble | – | – | –
10 | NS(=O)(=O)c1ccc(CC/N=C/c2ccc(O)cc2)cc1 | soluble | 105 | 43 | –
11 | Cl.NS(=O)(=O)c1ccc(CNCc2ccc(O)cc2)cc1 | soluble | 59.5 | – | –
12 | Cl.NS(=O)(=O)c1ccc(C/N=C/c2ccccc2)cc1 | soluble | 93 | – | –
13 | COc1ccc(O)c(CNCc2ccc(S(N)(=O)=O)cc2)c1.Cl | soluble | 51.9 | – | –
14 | NS(=O)(=O)c1ccc(/N=C/c2ccc(O)cc2)cc1 | soluble | 80 | 11.1 | –
15 | Cl.NS(=O)(=O)c1ccc(CNCc2ccccc2)cc1 | soluble | 30.3 | – | –
16 | NS(=O)(=O)c1ccc(CCNCc2ccccc2)cc1 | soluble | – | – | –
17 | O=C(O)c1ccc(/N=C/c2ccccc2)cc1 | soluble | 1230 | – | –
18 | COc1ccc(O)c(/C=N/c2ccc(C(=O)O)cc2)c1 | soluble | 1290 | – | –
19 | CC(C)(C)c1ccc(/C=N/CCc2ccc(S(N)(=O)=O)cc2)cc1 | soluble | 665 | 11.2 | –
20 | CC(C)(C)c1ccc(/C=N/Cc2ccc(S(N)(=O)=O)cc2)cc1.Cl | soluble | 72 | – | –
21 | COc1ccc(O)c(CNCCc2ccc(S(N)(=O)=O)cc2)c1 | soluble | 56 | 51.5 | –
22 | COC(=O)c1ccc(/N=C/c2ccccc2)cc1 | soluble | 8600 | – | –
23 | COc1ccc(O)c(/C=N/CCc2ccc(S(N)(=O)=O)cc2)c1 | soluble | 70 | 12.6 | –
24 | COC(=O)c1ccc(/N=C/c2ccc(O)cc2)cc1 | soluble | 1040 | – | –

Other lines, results leading:

Row | solubility [1] | Ki (Carbonic anhydrase 1) [nM] | Ki (Carbonic anhydrase 2) [nM] | Ratio Ki (Homo sapiens) | SMILES
25 | soluble | 266 | – | – | CC(C)(C)c1ccc(CNc2ccc(C(=O)O)cc2)cc1
26 | soluble | 251 | – | – | COC(=O)c1ccc(NCc2ccc(C(C)(C)C)cc2)cc1
27 | soluble | 18.7 | – | – | CC(C)(C)c1ccc(CNc2ccc(S(N)(=O)=O)cc2)cc1
28 | soluble | 228 | – | 23 | COC(=O)c1ccc(NCc2cc(OC)ccc2O)cc1
29 | soluble | 209 | – | – | COC(=O)c1ccc(NCc2ccc(O)cc2)cc1
30 | soluble | 200 | – | 111 | COC(=O)c1ccc(NCc2ccccc2)cc1
31 | soluble | 189 | – | – | COc1ccc(O)c(CNc2ccc(C(=O)O)cc2)c1
32 | soluble | 25.5 | – | – | CC(C)(C)c1ccc(CNCc2ccc(S(N)(=O)=O)cc2)cc1.Cl
33 | soluble | 29 | 702 | – | NS(=O)(=O)c1ccc(NCc2ccc(O)cc2)cc1
34 | soluble | 116 | – | – | O=C(O)c1ccc(NCc2ccc(O)cc2)cc1
35 | soluble | 7460 | – | – | COC(=O)c1ccc(/N=C/c2ccc(C(C)(C)C)cc2)cc1
36 | soluble | 50.3 | 8.6 | – | CC(C)(C)c1ccc(CNCCc2ccc(S(N)(=O)=O)cc2)cc1
37 | soluble | 8270 | – | – | CC(C)(C)c1ccc(/C=N/c2ccc(C(=O)O)cc2)cc1
38 | soluble | 56.7 | – | – | O=C(O)c1ccc(NCc2ccccc2)cc1
